One test has as its target T1, human CYP11B1 (Homo sapiens, UniProt P15538).
T1 construct: The expression plasmids contains the ORF for either human/cyno CYP11B1 or CYP11B2; expressed in transfected cells
T1 sequence (P15538 25-503): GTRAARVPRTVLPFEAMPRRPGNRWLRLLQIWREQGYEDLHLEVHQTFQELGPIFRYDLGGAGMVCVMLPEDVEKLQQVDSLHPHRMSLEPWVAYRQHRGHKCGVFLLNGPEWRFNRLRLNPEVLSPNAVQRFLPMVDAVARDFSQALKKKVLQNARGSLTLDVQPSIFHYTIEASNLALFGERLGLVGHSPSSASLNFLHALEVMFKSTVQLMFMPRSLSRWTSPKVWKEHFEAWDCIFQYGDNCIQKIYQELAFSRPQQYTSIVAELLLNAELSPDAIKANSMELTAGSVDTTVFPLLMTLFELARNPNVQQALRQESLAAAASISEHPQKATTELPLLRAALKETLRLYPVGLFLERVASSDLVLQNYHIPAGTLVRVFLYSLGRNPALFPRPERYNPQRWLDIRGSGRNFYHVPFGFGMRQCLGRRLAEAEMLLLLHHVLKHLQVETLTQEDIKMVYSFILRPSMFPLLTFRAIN
Briefly: G-402 cellular enzyme assay, human CYP11B1 (cortisol release, HTRF). It is filed as cell-based. The settings on record: G-402 cells expressing human CYP11B1; 1 μM Deoxycortisol. The source says:
(§1) Herein we identified the use of the G-402 cell line as a host cell to ectopically express (transiently or stably) enzymes of the CYP11 family. Specifically we developed stable G-402 cells expressing ectopically human CYP11B1, human CYP11B2, human CYP11A1, cynmolgus CYP11B1 or cynomolgus CYP11B2 enzyme activity. Importantly the identified cell line G-402 expresses co-factors (adrenodoxin and adrenodoxin reductase) important for the activity of the CYP11 family and no relevant enzyme activity of the CYP11 family (in comparison to H295R cells) was detected in these cells. Therefore the G-402 cell line is uniquely suited as a host cell for the ectopic expression of enzymes from the CYP11 family. G-402 cells can be obtained from ATCC (CRL-1440) and were originally derived from a renal leiomyoblastoma.
(§2) The expression plasmids contains the ORF for either human/cyno CYP11B1 or CYP11B2 under the control of a suitable promoter (CMV-promoter) and a suitable resistance marker (neomycin). Using standard techniques the expression plasmid is transfected into G-402 cells and these cells are then selected for expressing the given resistance markers. Individual cell-clones are then selected and assessed for displaying the desired enzymatic activity using 11-Deoxycorticosterone (Cyp11B2) or 11-Deoxycortisol (Cyp11B) as a substrate.
(§3) G-402 cells expressing CYP11 constructs were established as described above and maintained in McCoy's 5a Medium Modified, ATCC Catalog No. 30-2007 containing 10% FCS and 400 μg/ml G418 (Geneticin) at 37° C. under an atmosphere of 5% CO2/95% air. Cellular enzyme assays were performed in DMEM/F12 medium containing 2.5% charcoal treated FCS and appropriate concentration of substrate (0.3-10 uM 11-Deoxycorticosterone, 11-Deoxycortisol or Corticosterone). For assaying enzymatic activity, cells were plated onto 96 well plates and incubated for 16 h. An aliquot of the supernatant is then transferred and analyzed for the concentration of the expected product (Aldosterone for CYP11B2; Cortisol for CYP11B1). The concentrations of these steroids can be determined using HTRF assays from CisBio analyzing either Aldosterone or Cortisol.
(§4) Inhibition of the release of produced steroids can be used as a measure of the respective enzyme inhibition by test compounds added during the cellular enzyme assay. The dose dependent inhibition of enzymatic activity by a compound is calculated by means of plotting added inhibitor concentrations (x-axes) vs. measured steroid/product level (y-axes). The inhibition is then calculated by fitting the following 4-parameter sigmoidal function (Morgan-Mercer-Flodin (MMF) model) to the raw data points using the least squares method:
(§5) [formula] wherein, A is the maximum y value, B is the EC50 factor determined using XLFit, C is the minimum y value and D is the slope value.
(§6) EC50 values for compounds claimed herein were tested with the G402-based assay system described. Cyp11B2 enzyme activity was tested in presence of 1 μM Deoxycorticosterone and variable amounts of inhibitors; Cyp11B1 enzyme activity was tested in presence of 1 μM Deoxycortisol and variable amounts of inhibitors.
Background: TR-FRET usually uses a lanthanide donor and a delayed reading to cut background.

The next test concerns the target T2, human CYP11B2 (Homo sapiens, UniProt P19099).
T2 construct: The expression plasmids contains the ORF for either human/cyno CYP11B1 or CYP11B2; expressed in transfected cells
T2 sequence (P19099 25-503): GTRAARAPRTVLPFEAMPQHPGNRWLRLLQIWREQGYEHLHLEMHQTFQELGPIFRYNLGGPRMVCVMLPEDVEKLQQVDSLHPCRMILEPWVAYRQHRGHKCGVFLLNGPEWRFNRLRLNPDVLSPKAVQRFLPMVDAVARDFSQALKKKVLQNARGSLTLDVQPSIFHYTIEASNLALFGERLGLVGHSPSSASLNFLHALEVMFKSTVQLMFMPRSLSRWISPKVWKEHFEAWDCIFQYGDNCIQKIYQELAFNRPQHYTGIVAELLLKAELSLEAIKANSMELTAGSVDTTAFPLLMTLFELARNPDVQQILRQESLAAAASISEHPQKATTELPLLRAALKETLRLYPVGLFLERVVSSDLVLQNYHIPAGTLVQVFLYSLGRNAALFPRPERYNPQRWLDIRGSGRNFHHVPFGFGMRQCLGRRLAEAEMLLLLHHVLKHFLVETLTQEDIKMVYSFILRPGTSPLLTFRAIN
Briefly: G-402 cellular enzyme assay, human CYP11B2 (aldosterone release, HTRF). In kind it is cell-based. Particulars: G-402 cells expressing human CYP11B2; 1 μM Deoxycorticosterone.
Text: as §1, §2, §3, §4, §5, §6

SMILES strings stand for the structures.

Experimental findings from patent publication US9505742B2, “3,4-dihydro-2H-isoquinoline-1-one and 2,3-dihydro-isoindol-1-one compounds” (Hoffmann-La Roche Inc., priority 2013, dated 2016) are described below.

One may read the EC50 as the concentration at which the effect is half-maximal. A high value points to a need for much substance. On to `CCS(=O)(=O)N1CCCC(c2cncc(N3C(=O)c4ccc(Cl)cc4C3(C)C)c2)C1` (stereo not drawn) [Example 4, 5-Chloro-2-[5-(1-ethylsulfonylpiperidin-3-yl)pyridin-3-yl]-3,3-dimethylisoindol-1-one], for which the EC50 on human CYP11B1 was determined as 605 nM; on human CYP11B2, 6 nM.

For `CCS(=O)(=O)N1CCC(c2cncc(N3C(=O)c4ccc(Cl)cc4C3(C)C)c2)C1` (stereo not drawn) [Example 7, 5-Chloro-2-[5-(1-ethylsulfonylpyrrolidin-3-yl)pyridin-3-yl]-3,3-dimethylisoindol-1-one], the EC50 on human CYP11B1 came out at 149 nM; on human CYP11B2, 2 nM.

Take `CC(C)S(=O)(=O)N1CCC(F)(c2cncc(N3C(=O)c4ccc(Cl)cc4C3(C)C)c2)C1` (stereo not drawn) [Example 14, 5-Chloro-2-[5-(3-fluoro-1-propan-2-ylsulfonylpyrrolidin-3-yl)pyridin-3-yl]-3,3-dimethylisoindol-1-one]: the EC50 at human CYP11B1 is 232 nM; at human CYP11B2 it was 4 nM.

As to `CCCS(=O)(=O)N1CCC(c2cncc(N3C(=O)c4ccc(Cl)cc4C3(C)C)c2)CC1` [Example 15, 5-Chloro-3,3-dimethyl-2-[5-(1-propylsulfonylpiperidin-4-yl)pyridin-3-yl]isoindol-1-one], the values for the EC50 at human CYP11B1 and on human CYP11B2 were 239 nM and 1 nM, respectively.

As to `CC(C)S(=O)(=O)N1CCC(c2cncc(N3C(=O)c4ccc(Cl)cc4C3(C)C)c2)CC1` [Example 16, 5-Chloro-3,3-dimethyl-2-[5-(1-propan-2-ylsulfonylpiperidin-4-yl)pyridin-3-yl]isoindol-1-one], the results for the EC50 at human CYP11B1 and on human CYP11B2 were 1190 nM and 4 nM, respectively.

Take `CC1(C)c2cc(Cl)ccc2C(=O)N1c1cncc(C2CCN(S(=O)(=O)C3CC3)CC2)c1` [Example 17, 5-Chloro-2-[5-(1-cyclopropylsulfonylpiperidin-4-yl)pyridin-3-yl]-3,3-dimethylisoindol-1-one]: the EC50 at human CYP11B1 came to 1000 nM; at human CYP11B2, 3 nM.

As for `Cc1ccncc1C(=O)N1CCC(c2cncc(N3C(=O)c4ccc(Cl)cc4C3(C)C)c2)CC1` [Example 18, 5-Chloro-3,3-dimethyl-2-[5-[1-(4-methylpyridine-3-carbonyl)piperidin-4-yl]pyridin-3-yl]isoindol-1-one], the EC50 is 219 nM at human CYP11B1 and 16 nM at human CYP11B2.

`CC1(C)c2cc(Cl)ccc2C(=O)N1c1cncc(C2CCN(C(=O)c3ccncc3Cl)CC2)c1` [Example 19, 5-Chloro-2-[5-[1-(3-chloropyridine-4-carbonyl)piperidin-4-yl]pyridin-3-yl]-3,3-dimethylisoindol-1-one]: the EC50 on human CYP11B1 worked out at 1340 nM; at human CYP11B2, 21 nM.

Regarding `CC1(C)c2cc(Cl)ccc2C(=O)N1c1cncc(C2CCN(C(=O)c3ncccc3Cl)CC2)c1` [Example 20, 5-Chloro-2-[5-[1-(3-chloropyridine-2-carbonyl)piperidin-4-yl]pyridin-3-yl]-3,3-dimethylisoindol-1-one], the EC50 was found to be 488 nM at human CYP11B1 and 8 nM on human CYP11B2.

For `CCS(=O)(=O)N1CCC(c2cncc(N3Cc4cc(Cl)ccc4C3=O)c2)CC1` [Example 21, 5-Chloro-2-[5-(1-ethylsulfonylpiperidin-4-yl)pyridin-3-yl]-3H-isoindol-1-one], the EC50 at human CYP11B1 came to 1050 nM; on human CYP11B2, 25 nM.

As to `CC(C)S(=O)(=O)N1CCC(c2cncc(N3Cc4cc(Cl)ccc4C3=O)c2)CC1` [Example 22, 5-Chloro-2-[5-(1-propan-2-ylsulfonylpiperidin-4-yl)pyridin-3-yl]-3H-isoindol-1-one], the results for the EC50 on human CYP11B1 and at human CYP11B2 were 7340 nM and 84 nM, respectively.

As to `Cc1ccncc1C(=O)N1CCC(c2cncc(N3Cc4cc(Cl)ccc4C3=O)c2)CC1` [Example 23, 5-Chloro-2-[5-[1-(4-methylpyridine-3-carbonyl)piperidin-4-yl]pyridin-3-yl]-3H-isoindol-1-one], the EC50 on human CYP11B1 is 949 nM; at human CYP11B2 it was 97 nM.
